Data taken from ChEMBL document CHEMBL1125455, “Novel anthraquinone inhibitors of human leukocyte elastase and cathepsin G” (J Med Chem, 1992).
Activity calls are given as the source filed them. The calls are words filed in the database; no cut-off is given here.

Assays:
[1] = molecular target: T1, Neutrophil elastase (Homo sapiens, UniProt P08246); assay: In vitro inhibition of human leukocyte elastase.
T1 sequence (P08246 whole entry): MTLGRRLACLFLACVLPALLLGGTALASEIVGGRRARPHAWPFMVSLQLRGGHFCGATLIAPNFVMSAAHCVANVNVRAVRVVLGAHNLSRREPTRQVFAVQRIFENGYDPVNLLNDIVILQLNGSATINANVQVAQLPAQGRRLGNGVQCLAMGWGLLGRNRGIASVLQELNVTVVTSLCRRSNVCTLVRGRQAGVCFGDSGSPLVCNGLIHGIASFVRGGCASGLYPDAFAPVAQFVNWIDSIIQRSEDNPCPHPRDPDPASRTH

[2] = molecular target: T1, Neutrophil elastase; assay: HLE-inhibitor (Human Leukocyte Elastase) dissociation constant determined by using Dixon Plot
[3] = molecular target: T2, Cathepsin G (Homo sapiens, UniProt P08311); assay: Compound was tested for the enzyme inhibitory activity against Cathepsin G; NI = no inhibition
T2 sequence (P08311 whole entry): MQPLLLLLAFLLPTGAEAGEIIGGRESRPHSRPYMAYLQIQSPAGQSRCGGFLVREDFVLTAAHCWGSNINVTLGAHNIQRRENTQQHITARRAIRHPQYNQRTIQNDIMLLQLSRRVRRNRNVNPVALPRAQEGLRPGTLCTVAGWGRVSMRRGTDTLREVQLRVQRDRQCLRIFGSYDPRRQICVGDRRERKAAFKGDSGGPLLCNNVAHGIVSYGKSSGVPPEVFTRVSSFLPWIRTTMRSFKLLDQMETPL

[4] = molecular target: T1, Neutrophil elastase; assay: Compound was tested for the enzyme inhibitory activity against Human Leukocyte elastase
[5] = molecular target: T3, Cathepsin G (Homo sapiens) (UniProt P08311); assay: Inhibitory activity against Cathepsin G (CatG) at 86 uM concentration
T3 sequence (whole entry): T2 sequence (P08311 whole entry)

[6] = molecular target: T4, Neutrophil elastase (Homo sapiens) (UniProt P08246); assay: Inhibitory activity against Human Leukocyte Elastase (HLE) at 86 uM concentration; NI = no inhibition
T4 sequence (whole entry): T1 sequence (P08246 whole entry)

[7] = molecular target: T5, Chymotrypsin-like elastase family member 2A (Sus scrofa) (UniProt P08419); assay: Inhibitory activity against Porcine Pancreatic Elastase (PPE) at 86 uM concentration; NI = no inhibition
T5 sequence (whole entry): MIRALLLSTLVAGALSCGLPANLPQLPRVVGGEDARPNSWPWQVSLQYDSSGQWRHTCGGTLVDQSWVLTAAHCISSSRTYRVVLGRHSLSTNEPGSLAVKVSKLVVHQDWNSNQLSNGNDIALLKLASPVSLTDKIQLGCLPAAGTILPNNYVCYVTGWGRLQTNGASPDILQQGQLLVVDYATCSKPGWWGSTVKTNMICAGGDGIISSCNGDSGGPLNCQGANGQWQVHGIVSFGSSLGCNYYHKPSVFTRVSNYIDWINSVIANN

[8] = molecular target: Chymotrypsinogen A (Bos taurus) (UniProt P00766); assay: Inhibitory activity against Chymotrypsinogen at 56 uM concentration; NI = no inhibition
[9] = molecular target: T3, Cathepsin G (Homo sapiens); assay: Inhibitory activity against Cathepsin G (CatG) at 56 uM concentration; NI = no inhibition
[10] = molecular target: T5, Chymotrypsin-like elastase family member 2A (Sus scrofa); assay: Inhibitory activity against Porcine Pancreatic Elastase (PPE) at 56 uM concentration; NI = no inhibition
[11] = molecular target: T4, Neutrophil elastase (Homo sapiens); assay: Inhibitory activity against Human Leukocyte Elastase (HLE) at 56 uM concentration; NI = no inhibition
[12] = molecular target: T2, Cathepsin G; assay: Compound was tested for the enzyme inhibitory activity against Cathepsin G (CatG); NI = no inhibition
[13] = molecular target: T3, Cathepsin G (Homo sapiens); assay: Inhibitory activity against Cathepsin G (CatG) at 29 uM concentration
[14] = molecular target: Chymotrypsinogen A (Bos taurus) (UniProt P00766); assay: Inhibitory activity against Chymotrypsinogen at 29 uM concentration; NI = no inhibition
[15] = molecular target: T4, Neutrophil elastase (Homo sapiens); assay: Inhibitory activity against Human Leukocyte Elastase (HLE) at 29 uM concentration; NI = no inhibition
[16] = molecular target: T5, Chymotrypsin-like elastase family member 2A (Sus scrofa); assay: Inhibitory activity against Porcine Pancreatic Elastase (PPE) at 29 uM concentration; NI = no inhibition
[17] = molecular target: T1, Neutrophil elastase; assay: Compound was tested for the enzyme inhibitory activity against Human Leukocyte Elastase (HLE); NI = no inhibition
[18] = molecular target: T3, Cathepsin G (Homo sapiens); assay: Inhibitory activity against Cathepsin G (CatG) at 62 uM concentration
[19] = molecular target: Chymotrypsinogen A (Bos taurus) (UniProt P00766); assay: Inhibitory activity against Chymotrypsinogen at 62 uM concentration; NI = no inhibition; settings: Sus scrofa
[20] = molecular target: T5, Chymotrypsin-like elastase family member 2A (Sus scrofa); assay: Inhibitory activity against Porcine Pancreatic Elastase (PPE) at 62 uM concentration
[21] = molecular target: T4, Neutrophil elastase (Homo sapiens); assay: Inhibitory activity against Human Leukocyte Elastase (HLE) at 62 uM concentration
[22] = molecular target: T1, Neutrophil elastase; assay: Compound was tested for the enzyme inhibitory activity against Human Leukocyte Elastase (HLE)
[23] = molecular target: Chymotrypsinogen A (Bos taurus) (UniProt P00766); assay: Inhibitory activity against Chymotrypsinogen at 30 uM concentration
[24] = molecular target: T3, Cathepsin G (Homo sapiens); assay: Inhibitory activity against Cathepsin G (CatG) at 30 uM concentration; NI = no inhibition
[25] = molecular target: T4, Neutrophil elastase (Homo sapiens); assay: Inhibitory activity against Human Leukocyte Elastase (HLE) at 30 uM concentration
[26] = molecular target: T5, Chymotrypsin-like elastase family member 2A (Sus scrofa); assay: Inhibitory activity against Porcine Pancreatic Elastase (PPE) at 30 uM concentration
[27] = molecular target: T2, Cathepsin G; assay: Inhibition of Cathepsin G (CatG)

CCCCCCc1ccc2c(c1OC(=O)OCCCC)C(=O)c1c(OC(=O)OCCCC)cccc1C2=O was tested, and the IC50 [1] was 2.1 µM and the Ki [2] was 430 nM.
CCCCOC(=O)Oc1cc(OC(=O)OCCCC)c2c(c1)C(=O)c1cc(C)cc(OC(=O)OCCCC)c1C2=O gave an IC50 [1] of 1.3 µM.
In the case of COc1c(C)ccc2c1C(=O)c1ccccc1C2=O, the IC50 [3] is reported as “Not Active” and the IC50 [4] is reported as over 60 µM.
O=C1c2cccc(O)c2C(=O)c2c1ccc(Cc1ccccc1)c2O was tested, and the IC50 [1] was 13 µM.
CCCCOC(=O)Oc1cccc2c1C(=O)c1c(OC(=O)OCCCC)cccc1C2=O was tested, and the IC50 [1] was 12 µM and the Ki [2] was 7500 nM.
O=C(O)c1cc(O)c2c(c1)C(=O)c1cccc(O)c1C2=O was tested, and the inhibition [5] was 22%, the inhibition [6] was “inactive” and the inhibition [7] was “inactive”.
For CC(=O)Oc1cccc2c1C(=O)c1c(OC(C)=O)cc(C)cc1C2=O, the inhibition [8] was “inactive”, the inhibition [9] was “inactive” and the inhibition [10] was “inactive”. The inhibition [11] was “inactive”.
CCc1ccc2c(c1)C(=O)c1ccccc1C2=O was tested, and the IC50 [12] was “Not Active”.
Molecule CCCCCc1ccc2c(c1O)C(=O)c1c(O)cccc1C2=O has an IC50 [1] of 3.9 µM.
For COc1cc(OC)c2c(c1)C(=O)c1cc(CBr)cc(OC)c1C2=O, the inhibition [13] was 14%, the inhibition [14] was “inactive” and the inhibition [15] was “inactive”. For the same molecule, the inhibition [16] was “inactive”.
With COc1cccc2c1C(=O)c1c(ccc(C)c1O)C2=O the IC50 [12] was “Not Active” and the IC50 [1] was 19 µM.
With COc1cccc2c1C(=O)c1c(ccc(Cc3ccccc3)c1OC(C)=O)C2=O the IC50 [12] was “Not Active” and the IC50 [17] was “Not Active”.
With O=C1c2cc(O)cc(O)c2C(=O)c2c(O)cc(CO)cc21 the inhibition [18] was 22%, the inhibition [19] was “inactive” and the inhibition [20] was 4%. It also gave an inhibition [21] of 26%.
COc1cccc2c1C(=O)c1c(ccc(CC(C)C)c1O)C2=O was tested, and the IC50 [12] was “No inhibition” and the IC50 [1] was 11 µM.
Cc1ccc2c(c1O)C(=O)c1c(O)cccc1C2=O showed an IC50 [1] of 9.9 µM.
COc1cccc2c1C(=O)c1c(ccc(Cc3ccccc3)c1O)C2=O was tested, and the IC50 [12] was “No inhibition” and the IC50 [1] was 6.7 µM.
With CCCCOC(=O)Oc1cc(C)cc2c1C(=O)c1c(OC(=O)OCCCC)cc(OCCC)cc1C2=O the Ki [2] was 150 nM and the IC50 [22] was 1800 nM.
COc1cc(OC)c2c(c1)C(=O)c1cc(C)cc(OC)c1C2=O was tested, and the inhibition [23] was 6%, the inhibition [24] was “inactive” and the inhibition [25] was 16%. For the same molecule, the inhibition [26] was 4%.
For Cc1ccc2c(c1)C(=O)c1ccccc1C2=O [TECTOQUINONE], the IC50 [12] was “Not Active” and the IC50 [1] was 39 µM.
In the case of CCCCCc1ccc2c(c1O)C(=O)c1c(OC)cccc1C2=O, the IC50 [27] is reported as over 60 µM and the IC50 [1] is reported as 6.1 µM.
In the case of CCCCOC(=O)Oc1cccc2c1C(=O)c1c(OC(=O)OCCCC)cc(C)cc1C2=O, the IC50 [1] is reported as 5.1 µM and the Ki [2] is reported as 1900 nM.
CCCc1ccc2c(c1O)C(=O)c1c(O)cccc1C2=O was tested, and the IC50 [1] was 4.2 µM.
